The structures appear in SMILES notation. Counter-ions that a name gives are not always drawn. Some results are limits rather than exact numbers.

A word on the IC50: it is the point on the concentration scale where inhibition reaches its midpoint. A high value points to a need for much substance.

Assay [1] has as its target T1, human JAK1 (Homo sapiens, UniProt P23458).
T1 construct: human JAK1 (a.a. 837-1142); His tag (N); made in house; host or cells: insect cells (baculovirus)
In words: In Vitro JAK Kinase Assay (HTRF, phosphorylation of a biotinylated peptide), JAK1. It is filed as biochemical. Conditions: Table 4; catalytic domain a.a. 837-1142, assay of Example A. The procedure: (§1) The catalytic activity of JAK1, JAK2 or JAK3 was assayed by measuring the phosphorylation of a biotinylated peptide. The phosphorylated peptide was detected by homogenous time resolved fluorescence (HTRF). […] Reactions were carried out at room temperature for 1 hour and then stopped with 20 μL 45 mM EDTA, 300 nM SA-APC, 6 nM Eu-Py20 in assay buffer (Perkin Elmer, Boston, Mass.). Binding to the Europium labeled antibody took place for 40 minutes and HTRF signal was measured on a Fusion plate reader (Perkin Elmer, Boston, Mass.).
(TR-FRET usually uses a lanthanide donor and a delayed reading to cut background.)

The target in assay [2] is T2, human JAK2 (Homo sapiens, UniProt O60674).
T2 construct: JAK2 (a.a. 828-1132); His tag (N); made in house; host or cells: insect cells (baculovirus)
The assay can be described thus: In Vitro JAK Kinase Assay (HTRF, phosphorylation of a biotinylated peptide), JAK2. The format is biochemical. As to conditions: Table 4; assay of Example A. The procedure: as §1

T2 sequence (O60674 828-1132): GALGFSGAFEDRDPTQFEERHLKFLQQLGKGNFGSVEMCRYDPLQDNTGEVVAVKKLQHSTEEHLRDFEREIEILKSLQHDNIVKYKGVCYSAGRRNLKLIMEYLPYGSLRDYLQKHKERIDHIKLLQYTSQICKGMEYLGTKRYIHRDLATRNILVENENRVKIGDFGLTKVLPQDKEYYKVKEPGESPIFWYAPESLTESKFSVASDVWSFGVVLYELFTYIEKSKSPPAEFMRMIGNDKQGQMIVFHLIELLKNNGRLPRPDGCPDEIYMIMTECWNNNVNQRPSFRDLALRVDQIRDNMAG
T1 sequence (P23458 849-1154): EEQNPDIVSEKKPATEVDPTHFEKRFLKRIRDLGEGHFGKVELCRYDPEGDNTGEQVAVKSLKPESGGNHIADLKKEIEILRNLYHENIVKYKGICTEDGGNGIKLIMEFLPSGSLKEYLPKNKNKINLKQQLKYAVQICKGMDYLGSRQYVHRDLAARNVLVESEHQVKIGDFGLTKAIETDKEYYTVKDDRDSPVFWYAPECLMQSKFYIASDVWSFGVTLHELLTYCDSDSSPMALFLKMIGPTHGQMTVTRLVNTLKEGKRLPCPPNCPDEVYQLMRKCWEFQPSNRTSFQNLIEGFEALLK

With `N#CCC1(n2cc(-c3ncnc4[nH]ccc34)cn2)CN([C@H]2CC[C@@H](Oc3cc(CNCCO)nc(C(F)(F)F)n3)CC2)C1` [Example 11, {1-(cis-4-{[6-{[(2-hydroxyethyl)amino]methyl}-2-(trifluoromethyl)pyrimidin-4-yl]oxy}cyclohexyl)-3-[4-(7H-pyrrolo[2,3-d]pyrimidin-4-yl)-1H-pyrazol-1-yl]azetidin-3-yl}acetonitrile tris(trifluoroacetate) (salt)], the IC50 in assay [1] is < 10 nM. Moreover, the “JAK2/JAK1 IC50 ratio” value in assay [2] is listed as “≧10”.

In the case of `CN(CCO)Cc1cc(O[C@H]2CC[C@@H](N3CC(CC#N)(n4cc(-c5ncnc6[nH]ccc56)cn4)C3)CC2)nc(C(F)(F)F)n1` [Example 12, {1-(cis-4-{[6-{[(2-hydroxyethyl)(methyl)amino]methyl}-2-(trifluoromethyl)pyrimidin-4-yl]oxy}cyclohexyl)-3-[4-(7H-pyrrolo[2,3-d]pyrimidin-4-yl)-1H-pyrazol-1-yl]azetidin-3-yl}acetonitrile tris(trifluoroacetate) (salt)], the IC50 in assay [1] is < 10 nM. Moreover, the “JAK2/JAK1 IC50 ratio” value in assay [2] is “≧10”.

For `CCN(CCO)Cc1cc(O[C@H]2CC[C@@H](N3CC(CC#N)(n4cc(-c5ncnc6[nH]ccc56)cn4)C3)CC2)nc(C(F)(F)F)n1` [Example 13, {1-(cis-4-{[6-{[ethyl(2-hydroxyethyl)amino]methyl}-2-(trifluoromethyl)pyrimidin-4-yl]oxy}cyclohexyl)-3-[4-(7H-pyrrolo[2,3-d]pyrimidin-4-yl)-1H-pyrazol-1-yl]azetidin-3-yl}acetonitrile tris(trifluoroacetate) (salt)], in assay [1], the IC50 is < 10 nM. In assay [2], the “JAK2/JAK1 IC50 ratio” value is “≧10”.

As for `N#CCC1(n2cc(-c3ncnc4[nH]ccc34)cn2)CN([C@H]2CC[C@@H](Oc3cc(CNCC(F)(F)F)nc(C(F)(F)F)n3)CC2)C1.O=C(O)C(F)(F)F.O=C(O)C(F)(F)F.O=C(O)C(F)(F)F` [Example 14, [3-[4-(7H-pyrrolo[2,3-d]pyrimidin-4-yl)-1H-pyrazol-1-yl]-1-(cis-4-{[6-{[(2,2,2-trifluoroethyl)amino]methyl}-2-(trifluoromethyl)pyrimidin-4-yl]oxy}cyclohexyl)azetidin-3-yl]acetonitrile tris(trifluoroacetate)], the IC50 in assay [1] is < 10 nM. In addition, the “JAK2/JAK1 IC50 ratio” value in assay [2] is on record as “≧10”.

As to `N#CCC1(n2cc(-c3ncnc4[nH]ccc34)cn2)CN([C@H]2CC[C@@H](Oc3cc(CNCCF)nc(C(F)(F)F)n3)CC2)C1.O=C(O)C(F)(F)F.O=C(O)C(F)(F)F.O=C(O)C(F)(F)F` [Example 15, {1-(cis-4-{[6-{[(2-fluoroethyl)amino]methyl}-2-(trifluoromethyl)pyrimidin-4-yl]oxy}cyclohexyl)-3-[4-(7H-pyrrolo[2,3-d]pyrimidin-4-yl)-1H-pyrazol-1-yl]azetidin-3-yl}acetonitrile tris(trifluoroacetate)], the IC50 in assay [1] was < 10 nM. For the same molecule, in assay [2], the “JAK2/JAK1 IC50 ratio” value was “≧10”.

For `C[C@@H](CO)NCc1cc(O[C@H]2CC[C@@H](N3CC(CC#N)(n4cc(-c5ncnc6[nH]ccc56)cn4)C3)CC2)nc(C(F)(F)F)n1` [Example 16, {1-(cis-4-{[6-({[(1S)-2-hydroxy-1-methylethyl]amino}methyl)-2-(trifluoromethyl)pyrimidin-4-yl]oxy}cyclohexyl)-3-[4-(7H-pyrrolo[2,3-d]pyrimidin-4-yl)-1H-pyrazol-1-yl]azetidin-3-yl}acetonitrile Ex 1 tris(trifluoroacetate) (salt)], the IC50 in assay [1] was < 10 nM. Further, the “JAK2/JAK1 IC50 ratio” value in assay [2] is given as “≧10”.

As for `C[C@H](CO)NCc1cc(O[C@H]2CC[C@@H](N3CC(CC#N)(n4cc(-c5ncnc6[nH]ccc56)cn4)C3)CC2)nc(C(F)(F)F)n1` [Example 17, {1-(cis-4-{[6-({[(1R)-2-hydroxy-1-methylethyl]amino}methyl)-2-(trifluoromethyl)pyrimidin-4-yl]oxy}cyclohexyl)-3-[4-(7H-pyrrolo[2,3-d]pyrimidin-4-yl)-1H-pyrazol-1-yl]azetidin-3-yl}acetonitrile tris(trifluoroacetate) (salt)], in assay [1], the IC50 is < 10 nM. In assay [2], the “JAK2/JAK1 IC50 ratio” value is recorded as “≧10”.

As for `C[C@@H](O)CNCc1cc(O[C@H]2CC[C@@H](N3CC(CC#N)(n4cc(-c5ncnc6[nH]ccc56)cn4)C3)CC2)nc(C(F)(F)F)n1` [Example 18, {1-(cis-4-{[6-({[(2S)-2-hydroxypropyl]amino}methyl)-2-(trifluoromethyl)pyrimidin-4-yl]oxy}cyclohexyl)-3-[4-(7H-pyrrolo[2,3-d]pyrimidin-4-yl)-1H-pyrazol-1-yl]azetidin-3-yl}acetonitrile tris(trifluoroacetate) (salt)], the IC50 in assay [1] is < 10 nM. In assay [2], the “JAK2/JAK1 IC50 ratio” value was “≧10”.

On to `C[C@H](O)CNCc1cc(O[C@H]2CC[C@@H](N3CC(CC#N)(n4cc(-c5ncnc6[nH]ccc56)cn4)C3)CC2)nc(C(F)(F)F)n1` [Example 19, {1-(cis-4-{[6-({[(2R)-2-hydroxypropyl]amino}methyl)-2-(trifluoromethyl)pyrimidin-4-yl]oxy}cyclohexyl)-3-[4-(7H-pyrrolo[2,3-d]pyrimidin-4-yl)-1H-pyrazol-1-yl]azetidin-3-yl}acetonitrile tris(trifluoroacetate) (salt)], for which the IC50 in assay [1] was < 10 nM. Further, the “JAK2/JAK1 IC50 ratio” value in assay [2] was “≧10”.

On to `CC(C)(O)CNCc1cc(O[C@H]2CC[C@@H](N3CC(CC#N)(n4cc(-c5ncnc6[nH]ccc56)cn4)C3)CC2)nc(C(F)(F)F)n1` [Example 20, {1-(cis-4-{[6-{[(2-hydroxy-2-methylpropyl)amino]methyl}-2-(trifluoromethyl)pyrimidin-4-yl]oxy}cyclohexyl)-3-[4-(7H-pyrrolo[2,3-d]pyrimidin-4-yl)-1H-pyrazol-1-yl]azetidin-3-yl}acetonitrile tris(trifluoroacetate) (salt)], for which, in assay [1], the IC50 was < 10 nM. Also, the “JAK2/JAK1 IC50 ratio” value in assay [2] is “≧10”.

As to `N#CCC1(n2cc(-c3ncnc4[nH]ccc34)cn2)CN([C@H]2CC[C@@H](Oc3cc(CNCCCO)nc(C(F)(F)F)n3)CC2)C1` [Example 21, {1-(cis-4-{[6-{[(3-hydroxypropyl)amino]methyl}-2-(trifluoromethyl)pyrimidin-4-yl]oxy}cyclohexyl)-3-[4-(7H-pyrrolo[2,3-d]pyrimidin-4-yl)-1H-pyrazol-1-yl]azetidin-3-yl}acetonitrile tris(trifluoroacetate) (salt)], the IC50 in assay [1] is < 10 nM. In addition, in assay [2], the “JAK2/JAK1 IC50 ratio” value is “≧10”.

On to `COCCNCc1cc(O[C@H]2CC[C@@H](N3CC(CC#N)(n4cc(-c5ncnc6[nH]ccc56)cn4)C3)CC2)nc(C(F)(F)F)n1.O=C(O)C(F)(F)F.O=C(O)C(F)(F)F.O=C(O)C(F)(F)F` [Example 22, {1-(cis-4-{[6-{[(2-methoxyethyl)amino]methyl}-2-(trifluoromethyl)pyrimidin-4-yl]oxy}cyclohexyl)-3-[4-(7H-pyrrolo[2,3-d]pyrimidin-4-yl)-1H-pyrazol-1-yl]azetidin-3-yl}acetonitrile tris(trifluoroacetate)], for which, in assay [1], the IC50 was < 10 nM. For the same molecule, the “JAK2/JAK1 IC50 ratio” value in assay [2] is “≧10”.

Consider `N#CCC1(n2cc(-c3ncnc4[nH]ccc34)cn2)CN([C@H]2CC[C@@H](Oc3cc(CN4CCC4)nc(C(F)(F)F)n3)CC2)C1` [Example 23, {1-(cis-4-{[6-(azetidin-1-ylmethyl)-2-(trifluoromethyl)pyrimidin-4-yl]oxy}cyclohexyl)-3-[4-(7H-pyrrolo[2,3-d]pyrimidin-4-yl)-1H-pyrazol-1-yl]azetidin-3-yl}acetonitrile tris(trifluoroacetate)], for which, in assay [1], the IC50 is < 10 nM. Also, the “JAK2/JAK1 IC50 ratio” value in assay [2] is recorded as “≧10”.

`N#CCC1(n2cc(-c3ncnc4[nH]ccc34)cn2)CN([C@H]2CC[C@@H](Oc3cc(CN4CC(O)C4)nc(C(F)(F)F)n3)CC2)C1` [Example 24, {1-(cis-4-{[6-[(3-hydroxyazetidin-1-yl)methyl]-2-(trifluoromethyl)pyrimidin-4-yl]oxy}cyclohexyl)-3-[4-(7H-pyrrolo[2,3-d]pyrimidin-4-yl)-1H-pyrazol-1-yl]azetidin-3-yl}acetonitrile tris(trifluoroacetate) (salt)]: the IC50 in assay [1] was < 10 nM. For the same molecule, the “JAK2/JAK1 IC50 ratio” value in assay [2] was “≧10”.

On to `N#CCC1(n2cc(-c3ncnc4[nH]ccc34)cn2)CN([C@H]2CC[C@@H](Oc3cc(CN4CCCC4)nc(C(F)(F)F)n3)CC2)C1` [Example 25, {1-(cis-4-{[6-(pyrrolidin-1-ylmethyl)-2-(trifluoromethyl)pyrimidin-4-yl]oxy}cyclohexyl)-3-[4-(7H-pyrrolo[2,3-d]pyrimidin-4-yl)-1H-pyrazol-1-yl]azetidin-3-yl}acetonitrile tris(trifluoroacetate)], for which, in assay [1], the IC50 is < 10 nM. In addition, in assay [2], the “JAK2/JAK1 IC50 ratio” value is “≧10”.

In the case of `N#CCC1(n2cc(-c3ncnc4[nH]ccc34)cn2)CN([C@H]2CC[C@@H](Oc3cc(CN4CC[C@H](O)C4)nc(C(F)(F)F)n3)CC2)C1` [Example 26, {1-(cis-4-{[6-{[(3S)-3-hydroxypyrrolidin-1-yl]methyl}-2-(trifluoromethyl)pyrimidin-4-yl]oxy}cyclohexyl)-3-[4-(7H-pyrrolo[2,3-d]pyrimidin-4-yl)-1H-pyrazol-1-yl]azetidin-3-yl}acetonitrile tris(trifluoroacetate) (salt)], the IC50 in assay [1] was < 10 nM. In addition, the “JAK2/JAK1 IC50 ratio” value in assay [2] is given as “≧10”.

For the origin of these results see patent US9359358B2, “Cyclohexyl azetidine derivatives as JAK inhibitors” (Incyte Holdings Corporation, priority 2011, dated 2016).
